Test results: publication PMC7307906, “Macrocyclic Modalities Combining Peptide Epitopes and Natural Product Fragments” (Journal of the American Chemical Society, 2020)

Assays:
[1] = molecular target: T1, human MC1R (Homo sapiens, UniProt Q01726); assay: cAMP assay (LANCE) in T-Rex-293 cells expressing MC1R; assay type: cell-based
T1 construct: expressed in transfected cells

[2] = molecular target: hMC1−5R; assay: Melanocortin receptor cAMP assay, result stated for all receptors together; assay type: cell-based, human; details: one bound printed for all receptors
Excerpt: Example concentration response curves for selected PepNats in MC1R, MC3R, MC4R, MC5R radioligand binding assays and MC1R, MC3R, MC4R cAMP assays. Responses were normalized to reference agonist NDP -α-MSH and presented as % effect of control, with full competition in binding defined as -100% and full agonism in cAMP assays defined as […]
binding assay. Threshold to define a compound as active was set to -30% in binding assays and 20% in cAMP assays respectively. Data are from at least three independent experiments and error bars represent ± Standard Error of the […]
% s p e c ific b in d in g o f
(1 picture or pasted object on this page, not shown here) […]
to the elution profile of the crude product . The relevant fractions containing the desired product were collected, analyzed by RP-HPLC-MS and accordingly pooled and lyophilized.
HRMS were obtained on a Thermo Scientific LTQ Fleet Orbitrap mass spectrometer coupled to an Accela HPLC-System (HPLC column: Hypersyl GOLD, 50 mm x 1 mm, particle size 1.9 μm) equipped with an electron spray ionization source (ESI). The mass detection was recorded in the range of […]
2) B) Biochemical Assays Materials and Methods
Surface Plasmon Resonance (SPR)
All SPR experiments were conducted on a Biacore T200, S200 or 8K instrument (GE Healthcare) at 20 °C using HBS-P+ as running buffer (GE Healthcare). […]

[3] = molecular target: T2, human MC4R (Homo sapiens, UniProt P32245); assay: cAMP assay (LANCE) in T-Rex-293 cells expressing MC4R; assay type: cell-based; details: cAMP assay; mean (± SEM) of at least three independent experiments; read-out: EC50 hMC4R cAMP
T2 construct: expressed in transfected cells
T2 sequence (P32245 whole entry): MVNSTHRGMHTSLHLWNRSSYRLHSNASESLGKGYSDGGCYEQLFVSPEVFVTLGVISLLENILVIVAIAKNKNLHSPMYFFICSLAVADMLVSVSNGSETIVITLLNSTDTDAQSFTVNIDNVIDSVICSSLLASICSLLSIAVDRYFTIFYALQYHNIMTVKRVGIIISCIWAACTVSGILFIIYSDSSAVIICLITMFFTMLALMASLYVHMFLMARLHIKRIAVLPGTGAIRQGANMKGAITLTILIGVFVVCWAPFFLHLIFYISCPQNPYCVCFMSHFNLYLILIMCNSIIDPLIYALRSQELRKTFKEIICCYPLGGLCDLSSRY

T1 sequence (Q01726 whole entry): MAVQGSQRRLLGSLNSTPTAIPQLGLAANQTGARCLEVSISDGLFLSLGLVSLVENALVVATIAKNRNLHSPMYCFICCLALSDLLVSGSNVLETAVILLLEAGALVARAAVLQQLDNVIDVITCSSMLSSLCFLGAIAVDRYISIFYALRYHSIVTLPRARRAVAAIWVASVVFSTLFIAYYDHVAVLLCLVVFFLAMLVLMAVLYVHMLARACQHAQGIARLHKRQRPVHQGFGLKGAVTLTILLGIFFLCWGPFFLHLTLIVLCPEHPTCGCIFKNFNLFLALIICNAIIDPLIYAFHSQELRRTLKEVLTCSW

% Effect hMC1R cAMP at 100 µM ([1]; % effect at 100 µM, compounds not reaching an upper plateau (§)): 30% | EC50 ([1]; cAMP assay, mean (± SEM) of at least three independent experiments, read-out: EC50 hMC1R cAMP): > 100 µM | EC50 [2]: > 100 µM | EC50 [3]: > 100 µM
SMILES: CN1C(=O)[C@H]2N[C@@H](c3ccc(cc3)C(=O)NCCCC[C@@H](C(=O)N[C@@H](Cc3ccc(O)cc3)C(N)=O)NC(=O)[C@H](CC(N)=O)NC(=O)[C@@H](Cc3ccccc3)NC(=O)[C@@H](Cc3ccccc3)NC(=O)[C@H](CCCNC(=N)N)NC(=O)[C@@H]1Cc1ccccc1)[C@H]1C(=O)N(c3ccccc3)C(=O)[C@H]12 [K1-minor, [II-FRffNK ]Y]
